{"source": "patent US20250057962A1", "about": "“PROCESSABLE COMPOSITIONS AND USE FOR THE SAME” (Ripple Therapeutics Corporation, priority 2021, published 2025)", "origin": "cited, not measured here", "conditions": "given once a day", "data": [{"smiles": "CC(C)OC(=O)CCC/C=C\\C[C@@H]1[C@@H](CC[C@@H](O)CCc2ccccc2)[C@H](O)C[C@@H]1O", "note": "[latanoprost]", "values": [{"measurement": "mean IOP lowering", "result": "about 35%"}]}]}
